Like-named read-outs stand apart in the source and are kept apart here.
Key:
[1] = ABTS oxidation; cited from earlier work
ex vivo worms in culture = assay: Ex vivo parasite killing, visual examination of cultured worms; parameters: species or system Schistosoma
TGR [2] = molecular target: T1, TGR (Schistosoma mansoni, UniProt Q962Y6); conditions: cited from earlier work
T1 sequence (Q962Y6 1-598): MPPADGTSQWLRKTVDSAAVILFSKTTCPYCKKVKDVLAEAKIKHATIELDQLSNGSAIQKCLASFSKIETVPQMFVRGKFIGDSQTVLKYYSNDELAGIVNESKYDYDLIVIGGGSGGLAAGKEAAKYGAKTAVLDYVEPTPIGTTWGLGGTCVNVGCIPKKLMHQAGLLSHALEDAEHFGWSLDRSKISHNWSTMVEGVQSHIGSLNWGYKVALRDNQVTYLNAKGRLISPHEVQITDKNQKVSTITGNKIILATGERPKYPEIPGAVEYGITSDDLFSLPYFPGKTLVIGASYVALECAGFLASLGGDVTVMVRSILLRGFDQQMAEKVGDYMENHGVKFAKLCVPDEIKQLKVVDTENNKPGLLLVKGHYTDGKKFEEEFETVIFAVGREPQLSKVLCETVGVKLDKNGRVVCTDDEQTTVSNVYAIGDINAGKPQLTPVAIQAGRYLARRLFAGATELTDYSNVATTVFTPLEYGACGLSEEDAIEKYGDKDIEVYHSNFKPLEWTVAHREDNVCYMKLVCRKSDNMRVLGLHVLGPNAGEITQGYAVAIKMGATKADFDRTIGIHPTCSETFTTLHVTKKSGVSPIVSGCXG

[3] = molecular target: T2, thioredoxin glutathione reductase (TGR) (Schistosoma mansoni, UniProt Q962Y6); assay type: biochemical
T2 sequence (Q962Y6 1-598): T1 sequence (Q962Y6 1-598)

TGR [4] = molecular target: T1, TGR; assay type: biochemical; conditions: with TGR; ABTS method, data in supporting information
[5] = NO release on reaction with cysteine, chemiluminescent assay; conditions: for NO donation on reaction with cysteine (in words): chemiluminescent assay
Microsomal stability = conditions: human liver microsomes, 60 minutes at 37 °C; for Microsomal stability, NADPH (+): with NADPH; for Microsomal stability, NADPH (−): without NADPH
Caco-2 permeability = conditions: human
[6] = human, microsomes, 1 h
[7] = molecular target: T2, thioredoxin glutathione reductase (TGR); conditions: cited from earlier work
[8] = 10 μM compound, cultured worms, 4 hr
[9] = 10 μM compound, cultured worms, 24 hr
[10] = 10 μM compound, cultured worms, 48 hr

| SMILES | Ex Vivo Parasite Killing 2 hr (ex vivo worms in culture; 10 μM compound, cultured worms) | Ex Vivo Parasite Killing 4 hr (ex vivo worms in culture; [8]) | Ex Vivo Parasite Killing 8 hr (ex vivo worms in culture; 10 μM compound, cultured worms) | Ex Vivo Parasite Killing 48 hr (ex vivo worms in culture; [10]) | Ex Vivo Parasite Killing 72 hr (ex vivo worms in culture; 10 μM compound, cultured worms) | also measured |
| --- | --- | --- | --- | --- | --- | --- |
| O=C(c1cccs1)c1no[n+]([O-])c1C(=O)c1cccs1 [Analogue 3, bis(thiophen-2-ylmethanone)-furoxan] | n.e. | n.e. | n.e. | n.e. | n.e. | NO generation in the presence of cysteine [1]: capable of NO generation in the presence of cysteine; Ex Vivo Parasite Killing 16 hr (ex vivo worms in culture; 10 μM compound, cultured worms): n.e.; Ex Vivo Parasite Killing 24 hr (ex vivo worms in culture; [9]): n.e.; NO generation in the presence of TGR/NADPH (TGR [2]): not in the presence of TGR/NADPH |
| N#Cc1nonc1-c1ccccc1 [Analogue 4] | – | – | – | – | – | TGR inhibition (in words) [3]: nor was either analogue active versus TGR; Ex vivo worm killing (in words) (ex vivo worms in culture): nor was either analogue active versus TGR or an effective ex vivo worm killing agent; NO release / NO donating ability (in words) (TGR [4]): no appreciable NO release with TGR |
| N#Cc1no[n+]([O-])c1-c1ccccc1 [Analogue 5] | – | – | – | – | – | TGR inhibition (in words) [3]: nor was either analogue active versus TGR; Ex vivo worm killing (in words) (ex vivo worms in culture): nor was either analogue active versus TGR or an effective ex vivo worm killing agent; NO release / NO donating ability (in words) (TGR [4]): no appreciable NO release with TGR |
| Cc1c(-c2ccccc2)no[n+]1[O-] [Analogue 6] | – | – | – | – | – | NO donation on reaction with cysteine (in words) [5]: nor was 6 capable of NO donation; NO release / NO donating ability (in words) (TGR [4]): inactive as a NO donor |
| [O-][n+]1onc(-c2ccccc2)c1CO [Analogue 7] | – | – | – | – | – | NO release / NO donating ability (in words) (TGR [4]): only a weak NO donor |
| O=Cc1c(-c2ccccc2)no[n+]1[O-] [Analogue 8] | – | – | – | – | – | NO release / NO donating ability (in words) (TGR [4]): only modest NO donating abilities |
| O=C(O)c1c(-c2ccccc2)no[n+]1[O-] [Analogue 9] | – | – | – | – | – | NO release / NO donating ability (in words) (TGR [4]): only modest NO donating abilities |
| N#Cc1c(-c2cccc([N+](=O)[O-])c2)no[n+]1[O-] [Analogue 11] | n.e. | n.e. | n.e. | – | – | Ex Vivo Parasite Killing 16 hr (ex vivo worms in culture; 10 μM compound, cultured worms): sluggish |
| N#Cc1c(-c2cccc(C(F)(F)F)c2)no[n+]1[O-] [Analogue 12] | n.e. | n.e. | – | 100%D | 100%D | – |
| N#Cc1c(-c2ccc(F)c(Br)c2)no[n+]1[O-] [Analogue 13] | n.e. | n.e. | curling | – | 100%D | Ex Vivo Parasite Killing 24 hr (ex vivo worms in culture; [9]): 50%D |
| N#Cc1c(-c2cccc(Br)c2)no[n+]1[O-] [Analogue 14] | n.e. | n.e. | – | 100%D | 100%D | Ex Vivo Parasite Killing 24 hr (ex vivo worms in culture; [9]): 100%D |
| N#Cc1c(-c2cccc(Cl)c2)no[n+]1[O-] [Analogue 15] | n.e. | sluggish | – | – | 100%D | – |
| N#Cc1c(-c2ccc(Br)cc2)no[n+]1[O-] [Analogue 16] | n.e. | sluggish | – | 100%D | 100%D | Ex Vivo Parasite Killing 24 hr (ex vivo worms in culture; [9]): 100%D; Microsomal stability, NADPH (+) (Microsomal stability): 10 % remaining; Microsomal stability, NADPH (−) (Microsomal stability): 67 % remaining |
| N#Cc1c(-c2ccc(Cl)cc2)no[n+]1[O-] [Analogue 17] | n.e. | n.e. | n.e. | – | 100%D | Ex Vivo Parasite Killing 16 hr (ex vivo worms in culture; 10 μM compound, cultured worms): sluggish |
| N#Cc1c(-c2ccc(C(F)(F)F)cc2)no[n+]1[O-] [Analogue 18] | n.e. | n.e. | – | – | 100%D | – |
| N#Cc1c(-c2cccc(O)c2)no[n+]1[O-] [Analogue 19] | n.e. | n.e. | – | n.e. | n.e. | Ex Vivo Parasite Killing 16 hr (ex vivo worms in culture; 10 μM compound, cultured worms): n.e.; Ex Vivo Parasite Killing 24 hr (ex vivo worms in culture; [9]): n.e. |
| N#Cc1c(-c2ccc(F)cc2)no[n+]1[O-] [Analogue 20] | n.e. | n.e. | – | 100%D | 100%D | – |
| COc1ccccc1-c1no[n+]([O-])c1C#N [Analogue 21] | n.e. | n.e. | – | – | – | – |
| COc1cc(-c2no[n+]([O-])c2C#N)cc(OC)c1OC [Analogue 22] | n.e. | n.e. | – | – | – | Ex Vivo Parasite Killing 16 hr (ex vivo worms in culture; 10 μM compound, cultured worms): sluggish |
| COc1cccc(-c2no[n+]([O-])c2C#N)c1 [Analogue 23] | n.e. | n.e. | n.e. | – | – | Ex Vivo Parasite Killing 16 hr (ex vivo worms in culture; 10 μM compound, cultured worms): n.e. |
| COc1ccc(-c2no[n+]([O-])c2C#N)cc1 [Analogue 24] | n.e. | n.e. | n.e. | – | 100%D | – |
| Cc1ccc(-c2no[n+]([O-])c2C#N)cc1 [Analogue 25] | n.e. | n.e. | n.e. | – | – | – |
| N#Cc1c(-c2ccc(-c3ccccc3)cc2)no[n+]1[O-] [Analogue 26] | n.e. | n.e. | sluggish | – | – | Ex Vivo Parasite Killing 16 hr (ex vivo worms in culture; 10 μM compound, cultured worms): sluggish; Ex Vivo Parasite Killing 24 hr (ex vivo worms in culture; [9]): 20%D |
| N#Cc1c(-c2ccc(O)cc2)no[n+]1[O-] [Analogue 27] | n.e. | n.e. | sluggish | – | 100%D | – |
| N#Cc1c(-c2ccco2)no[n+]1[O-] [Analogue 28] | n.e. | n.e. | – | 100%D | 100%D | NO release / NO donating ability (in words) (TGR [4]): good NO release profiles |
| N#Cc1c(-c2cccs2)no[n+]1[O-] [Analogue 29] | n.e. | n.e. | – | 100%D | 100%D | Papp A→B (Caco-2 permeability): 8.4 ×10⁻⁶ cm/s; NO release / NO donating ability (in words) (TGR [4]): good NO release profiles; Microsomal stability, NADPH (+) (Microsomal stability): 1 % remaining; Microsomal stability, NADPH (−) (Microsomal stability): 64 % remaining |
| N#Cc1c(C(=O)c2cccs2)no[n+]1[O-] [Analogue 30] | n.e. | n.e. | n.e. | n.e. | n.e. | NO donation on reaction with cysteine (in words) [5]: capable of releasing NO; Ex Vivo Parasite Killing 16 hr (ex vivo worms in culture; 10 μM compound, cultured worms): n.e.; Ex Vivo Parasite Killing 24 hr (ex vivo worms in culture; [9]): n.e. |
| N#Cc1c(-c2cccc(-c3no[n+]([O-])c3C#N)c2)no[n+]1[O-] [Analogue 31] | – | – | – | – | – | Ex Vivo Parasite Killing 4 hr (ex vivo worms in culture): curling; Ex Vivo Parasite Killing 24 hr (ex vivo worms in culture): 100%D; Ex Vivo Parasite Killing 48 hr (ex vivo worms in culture): 100%D |
| N#Cc1c(-c2cc(F)cc(-c3no[n+]([O-])c3C#N)c2)no[n+]1[O-] [Analogue 33] | – | – | – | – | – | NO equivalents produced per equivalent of reagent [5]: 1.55 molar equivalents; Microsomal stability, NADPH (+) [6]: 20/51 % remaining; Microsomal stability, NADPH (−) [6]: 20/51 % remaining; Ex Vivo Parasite Killing 48 hr (ex vivo worms in culture): 100%D |
| CC(=O)OC[C@H]1O[C@@H]([S-])[C@H](OC(C)=O)[C@@H](OC(C)=O)[C@@H]1OC(C)=O.CCP(CC)CC.[Au+] [auranofin] | – | – | – | – | – | TGR inhibition (in words) [7]: potent inhibitor of TGR |

Source: publication PMC2772170 (Journal of medicinal chemistry, 2009)
